Columns and labels:
[1] = test system: Arabidopsis seeds; assay: Arabidopsis reversal assay with antidote compounds; assay type: in vivo; conditions: for growth without the antidote (in words): probe compound alone, no antidote; for Growth, % of Control: probe compound at 1.5× lethal concentration
Protocol: The solutions are filter sterilized prior to addition. FIG. 4 represents a typical set up in a reversion assay for discovering inhibitors of AMP biosynthesis.
The left side (columns 1-3) of the 24-well microtiter plate is designed for controls, and the right side (columns 4-6) are designated for one probe compound. […] Rows B,C and D are supplemented with three doses of an antidote for the control and probe compound. […] The three doses are 50,100 and 150 μl respectively.
Forty ml of Arabidopsis growth media as described in Example 1 is sterilized and allowed to cool to about 45° C. A probe compound (at 1.5× lethal concentration) is added to columns 4 through 6 (right half of the plate). Media is distributed at 1.0 ml per well to all wells. Sterile seeds are added to each well as described above. As in Example 1, the plate is incubated and growth is scored.

[2] = target: T1, adenylosuccinate synthetase (ADSS) isolated from maize (Zea mays, UniProt O24578); assay: ADSS enzyme assay (HPLC and spectrophotometric), maize ADSS; assay type: biochemical
T1 construct: ADSS is obtained from 4-5 day old, etiolated seedlings of Zea mays; from tissue; host or cells: 4-5 day old etiolated maize seedlings
T1 sequence (O24578 45-484): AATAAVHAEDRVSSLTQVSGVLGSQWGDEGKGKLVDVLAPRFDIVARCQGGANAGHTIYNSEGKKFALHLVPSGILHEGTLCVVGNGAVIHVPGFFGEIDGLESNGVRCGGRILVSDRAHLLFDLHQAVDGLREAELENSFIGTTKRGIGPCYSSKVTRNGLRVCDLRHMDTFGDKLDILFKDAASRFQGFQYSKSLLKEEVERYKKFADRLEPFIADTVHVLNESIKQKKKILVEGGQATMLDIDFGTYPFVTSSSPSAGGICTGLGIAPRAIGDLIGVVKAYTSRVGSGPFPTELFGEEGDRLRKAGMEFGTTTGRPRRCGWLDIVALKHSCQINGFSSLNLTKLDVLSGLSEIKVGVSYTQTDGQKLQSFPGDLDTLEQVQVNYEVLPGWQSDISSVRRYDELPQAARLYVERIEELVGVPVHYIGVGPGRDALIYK
Protocol: (§1) ADSS is obtained from 4-5 day old, etiolated seedlings of Zea mays. Seedlings are homogenized in a Waring blender with an equal volume (grams of tissue=mls of buffer) of extraction buffer containing 50 mM EPPS, pH 7.5, 5 mM MgCl2, 0.1 mM EDTA, 5 mM sodium bisulfite, 5 mM DTT, 0.1 mM phenylmethanesulfonyl fluoride and 10% glycerol. The extract is expressed through Miracloth (Calbiochem, La Jolla, Calif.) sandwiched between layers of cheesecloth. To precipitate phenolics and nucleic acids, 0.2 to 0.4% w/v protamine sulfate is added to the extract. The extract is stirred for 30 minutes, and then centrifuged at 45,000×G for 60 minutes. The resulting supernatant is fractionated with ammonium sulfate. Proteins are retained which precipitate at concentrations of ammonium sulfate greater than 45% saturation, but less than 55% saturation. Similar methods are used to isolate ADSS from wheat germ, E. coli and rat liver. ADSS activity is further purified by subjecting the preparation to DEAE cellulose chromatography. The column is equilibrated with chromatography buffer consisting of 50 mM EPPS, pH 7.5, 10% glycerol, 0.1 mM EDTA, 5 mM MgCl2 and 1 mM DTT. After loading the enzyme preparation, the column is washed with two bed volumes of the chromatography buffer, then eluted with a linear, 10-bed-volume gradient of 0 to 0.4M KCl dissolved in the same buffer. The peak of ADSS activity elutes at a KCl concentration of about 150 mM. Fractions containing activity are pooled and the proteins concentrated by ultrafiltration. At this stage, the enzyme is suitable for high capacity screening tests that are designed to discover inhibitory compounds. Alternatively, hydrophobic interaction chromatography can be used instead of DEAE-cellulose. This material is optionally further purified by passage through a column of Sephadex G-75 equilibrated with the chromatography buffer described above. The peak of ADSS activity elutes at a retention volume corresponding to a molecular weight of approximately 50,000 Da.
ADSS is assayed by anion exchange HPLC and by a continuous spectrophotometric assay. For the former, enzyme is diluted appropriately with 50 mM EPPS, pH 8.3, 10% ethylene glycol, 10 mM potassium phosphate and 1 mM MgCl2 to a volume of 92 μL. […] Reactions are stopped by adding 1 μL of 4N HCl. 95 μL of the reaction mixture is injected to a Hamilton PRP-X100 column equilibrated with 3% acetonitrile. Reactants and products are eluted with a convex gradient (Curve=-2) to 6% 1M potassium phosphate, pH 7, and 12% 2M KCl delivered during a span of 30 min by a Perkin-Elmer 410 BIO pump. The column eluate is monitored at 270 nm using a Perkin-Elmer LC 480 diode array detector. Integrated peaks are quantified from standard curves. Identity of the products of the ADSS reaction, GDP and adenylosuccinate, are determined by comparing their retention times and spectra with those of authentic standards, purchased from Sigma Chemical Co.
For the spectrophotometric assay, reaction mixtures are the same as above, except that the volume is doubled. […] The optical density increases as AS is formed. […] This method of quantification was validated using the HPLC method.

[3] = target: T2, ADSS from wheat germ (Triticum aestivum, UniProt O24396); assay: ADSS enzyme assay, wheat germ ADSS; assay type: biochemical; conditions: compound at 100 μM; wheat germ ADSS (not shown)
T2 construct: from tissue
T2 sequence (O24396 whole entry): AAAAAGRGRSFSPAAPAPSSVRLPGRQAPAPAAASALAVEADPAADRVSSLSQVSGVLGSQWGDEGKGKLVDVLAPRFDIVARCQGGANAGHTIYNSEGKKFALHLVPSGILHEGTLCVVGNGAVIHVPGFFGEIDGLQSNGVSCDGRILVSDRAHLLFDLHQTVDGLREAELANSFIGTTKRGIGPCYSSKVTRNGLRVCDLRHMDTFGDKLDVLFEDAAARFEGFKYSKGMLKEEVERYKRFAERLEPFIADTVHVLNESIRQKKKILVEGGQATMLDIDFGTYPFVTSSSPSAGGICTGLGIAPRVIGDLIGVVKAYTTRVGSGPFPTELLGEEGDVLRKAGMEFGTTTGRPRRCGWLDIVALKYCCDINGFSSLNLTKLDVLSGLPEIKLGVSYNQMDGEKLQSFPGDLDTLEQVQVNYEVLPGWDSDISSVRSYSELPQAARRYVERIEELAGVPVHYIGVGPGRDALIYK
Protocol: as §1, with “Fractions containing activity are pooled and the proteins concentrated by ultrafiltration. At this stage, the enzyme is suitable for high capacity screening tests that are designed to discover inhibitory compounds. Alternatively, hydrophobic interaction chromatography can be used instead of DEAE-cellulose. This material is optionally further purified by passage through a column of Sephadex G-75 equilibrated with the chromatography buffer described above. The peak of ADSS activity elutes at a retention volume corresponding to a molecular weight of approximately 50,000 Da.” left out
(§2) ADSS is assayed by anion exchange HPLC and by a continuous spectrophotometric assay. […] The column eluate is monitored at 270 nm using a Perkin-Elmer LC 480 diode array detector. Integrated peaks are quantified from standard curves. Identity of the products of the ADSS reaction, GDP and adenylosuccinate, are determined by comparing their retention times and spectra with those of authentic standards, purchased from Sigma Chemical Co.
(§3) For the spectrophotometric assay, reaction mixtures are the same as above, except that the volume is doubled. […] This method of quantification was validated using the HPLC method.

[4] = target: T3, ADSS from E. coli (Escherichia coli, UniProt P0A7D4); assay: ADSS enzyme assay, E. coli ADSS; assay type: biochemical; conditions: E. coli ADSS (FIG. 6)
T3 construct: endogenous in cells; host or cells: E. coli
T3 sequence (P0A7D4 2-432): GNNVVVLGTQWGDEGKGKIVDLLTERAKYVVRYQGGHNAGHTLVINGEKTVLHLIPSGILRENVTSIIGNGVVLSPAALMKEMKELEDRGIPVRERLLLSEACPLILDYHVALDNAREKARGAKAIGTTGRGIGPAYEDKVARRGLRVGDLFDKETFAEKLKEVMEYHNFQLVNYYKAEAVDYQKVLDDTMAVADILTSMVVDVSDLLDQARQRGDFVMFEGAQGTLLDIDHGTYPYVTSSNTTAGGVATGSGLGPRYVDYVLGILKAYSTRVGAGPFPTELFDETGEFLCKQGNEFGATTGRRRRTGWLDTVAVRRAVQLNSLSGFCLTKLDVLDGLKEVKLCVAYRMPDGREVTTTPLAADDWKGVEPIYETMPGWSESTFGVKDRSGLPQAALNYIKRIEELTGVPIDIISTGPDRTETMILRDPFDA
Protocol: as §1
as §2, with “assay. For the former, enzyme is diluted appropriately with 50 mM EPPS, pH 8.3, 10% ethylene glycol, 10 mM potassium phosphate and 1 mM MgCl2 to a volume of 92 μL.” for “assay.”
as §3

[5] = target: T4, ADSS from rat liver (Rattus norvegicus, UniProt D4AEP0); assay: ADSS enzyme assay, rat liver ADSS; assay type: biochemical; conditions: rat liver ADSS (FIG. 6)
T4 construct: from tissue; host or cells: rat liver
T4 sequence (D4AEP0 1-456): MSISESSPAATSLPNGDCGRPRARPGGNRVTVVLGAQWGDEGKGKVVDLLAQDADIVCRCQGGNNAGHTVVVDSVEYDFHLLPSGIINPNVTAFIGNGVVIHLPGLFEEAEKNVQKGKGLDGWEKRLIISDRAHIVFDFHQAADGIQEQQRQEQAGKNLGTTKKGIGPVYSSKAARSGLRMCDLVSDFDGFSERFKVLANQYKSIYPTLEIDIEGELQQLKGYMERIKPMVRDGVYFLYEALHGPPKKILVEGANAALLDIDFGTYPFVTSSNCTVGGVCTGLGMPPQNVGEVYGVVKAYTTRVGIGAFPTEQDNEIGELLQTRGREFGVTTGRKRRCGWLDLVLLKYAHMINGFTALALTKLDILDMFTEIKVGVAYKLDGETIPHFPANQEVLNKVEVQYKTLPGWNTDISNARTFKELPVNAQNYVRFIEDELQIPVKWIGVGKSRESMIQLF
Protocol: as §1
as §2, with “assay. For the former, enzyme is diluted appropriately with 50 mM EPPS, pH 8.3, 10% ethylene glycol, 10 mM potassium phosphate and 1 mM MgCl2 to a volume of 92 μL.” for “assay.”
as §3

[6] = test system: adenylosuccinate lyase (ASL); assay: Assay of adenylosuccinate lyase (ASL); assay type: biochemical, Zea mays; conditions: 1 mM concentration (data not shown)
Protocol: ASL is obtained from three day old, etiolated seedlings of Zea mays (maize). Seedlings are homogenized in a Waring blender with an equal volume (grams of tissue=mls of buffer) of 20 mM potassium phosphate buffer (KP buffer) containing 1 mM DTT. The slurry is then filtered through a cheese cloth and the filtrate subjected to 100,000×g centrifugation for 60 minutes. The clear supernatant is used for assaying ASL activity.
A typical reaction mixture in 1 mL contains 100-300 μL of ASL and 0.15 mM adenylosuccinate (30 μL of a 5 mM solution in KP buffer), the rest being KP buffer. Disappearance of absorbance at 280 nm is followed as a function of time to determine the rate of ASL activity. Inhibitors when needed are included to a final concentration of 1 mM in the assay mixture to observe the effect on the ASL activity. Compounds hydantocidin, N-acetylhydantocidin, NAP-H and hadacidin had no effect on the rate of ASL activity at 1 mM concentration (data not shown).

[7] = target: T1, adenylosuccinate synthetase (ADSS) isolated from maize; conditions: known from the literature; cited from earlier work
[8] = test system: Arabidopsis seeds; assay: Arabidopsis bioassay, determination of the lethal concentration (LC 90); conditions: read-out: lethal concentration (LC 90); concentration causing 90% or greater growth inhibition vs control; 7 days, about 28° C.
[9] = antidote Adenosine + Guanosine 0.5-5.0 mM
[10] = antidote Cytidine + Uridine 0.5-5.0 mM
[11] = antidote Hypoxanthine 0.5-5.0 mM

Row | Compound | growth without the antidote (in words) [1] | Growth, % of Control ([1]; No antidote, 0 mM) [%] | Growth, % of Control ([1]; antidote ADP 0.5-5.0 mM) [%] | Growth, % of Control ([1]; antidote AMP 0.5-5.0 mM) [%] | Growth, % of Control ([1]; antidote ATP 0.5-5.0 mM) [%] | Growth, % of Control ([1]; antidote Adenine 0.5-5.0 mM) [%] | Growth, % of Control ([1]; antidote Adenosine 0.5-5.0 mM) | Growth, % of Control [1, 9] [%] | Growth, % of Control [1, 10] [%] | Growth, % of Control ([1]; antidote Guanine 0.5-5.0 mM) [%] | Growth, % of Control ([1]; antidote Guanosine 0.5-5.0 mM) [%] | Growth, % of Control [1, 11] [%] | Growth, % of Control ([1]; antidote IMP 0.5-5.0 mM) [%] | effect on the rate of ASL activity [6] | also measured
1 | NC(=O)c1ncn([C@@H]2O[C@H](CO)[C@@H](O)[C@H]2O)n1 [TCR, 1,2,4-triazole-3-carboxamide-1-ribose] | Growth is not observed |  |  |  |  |  |  |  |  |  |  |  |  |  | 
2 | O=CN(O)CC(=O)O [hadacidin] | Growth is not observed | 0 | 100 | 100 | 40 | 55 | 80-100% | 80 | 0 | 0 | 0 | 0 | 5 | no effect | IC50 ([2]; "under these conditions", ADSS source not given): 3 µM; product formation by ADSS ([2]; compound at 100 μM, maize ADSS (not shown)): Product is not formed; time course of ADSS inhibition ([2]; spectrophotometric assay (FIG. 7, FIG. 8)): not time dependent; product formation by ADSS [3]: Product is not formed; product formation by ADSS ([4]; compound at 100 μM): Product is not formed; product formation by ADSS ([5]; compound at 100 μM): Product is not formed; mode of ADSS inhibition [7]: competitively with aspartate
3 | N-acetyl hydantocidin | Growth is not observed | 0 | 100 | 100 | 40 | 60 | 80-100% | 80 | 0 | 0 | 0 | 0 | 5 | no effect | inhibition of ADSS (in words) [4]: neither the E. coli nor the rat liver ADSS are inhibited; inhibition of ADSS (in words) [5]: neither the E. coli nor the rat liver ADSS are inhibited; IC90 [8]: ~12 µM
